Experimental data from patent publication US11352374B2 (University of Alaska Anchorage, priority 2015, dated 2022).
Several values for one entry are separate records, joined by “and”; a condition that tells them apart may be missing. Equal entries are not always repeated. Where two headings read alike, the source gives them in different places.

Columns and labels:
[1] = CO released on auto-decomposition in water at 37° C., head space measured with CO meter; format: physicochemical; conditions: for % CO liberated at 24 hours by CO meter / CO release rate at 24 hours, CO meter, Autodecomposition / CO release (in words), CO meter: 37° C., 24 hours; for Rate of % CO released by CORCB sodium salts, Autodecomposition / Rate of % CO released by CORCBs, Autodecomposition: per 24 hour
Description: (§1) A test to confirm that CO is one of the decomposition products from CORCBs is done by utilizing commercially available CO meter. Four mole of the compounds at the concentrations of 6-12 mg/mL in aqueous solution was incubated at 37° C. in a sealed vessel with 50 mL gas space. CO meter was used to read the concentration of liberated CO gas from the solution. Measurement by CO meter in ppm, after converting to the micromole amount, was used for calculating the percent CO released based on the original amount of compound.
CO liberated from the molecules and coming out to the head space are detected and quantified by using CO meter.

[2] = CO released in the presence of H2O2, CO meter; format: physicochemical; conditions: for CO released with 3 equivalents H2O2: 3 equivalents H2O2, 12 hours at 37° C. (FIG. 9); for Rate of % CO released by CORCBs, With H2O2: H2O2 equivalents not given
Description: as §1
(§2) The two tested are the common ROS formed naturally in the cells—a non-radical hydrogen peroxide (H2O2) and Fenton reagent which is a more reactive hydroxyl radical (.OH) formed from Fe^2+ and H2O2. Four mole of CORCB compounds were mixed in an aqueous solution with ROS and incubated in a sealed vessel. At respective times, the head space air was injected into the meter to read the amount of CO produced. For analysis by NMR spectroscopy, the reaction mixture was prepared in NMR tube in D2O solvent and incubated for the amount of time indicated.

[3] = CO released in the presence of Fenton reagent (hydroxyl radical), CO meter; format: physicochemical; conditions: per 5 minutes
Description: as §1
as §2, with “All amine carboxyboranes express a faster CO release rate when incubated with the reactive oxygen species. The” for “The”, “indicated. While some CORCBs have increased amount of CO produced when treated with 3 times equivalents of H2O2, CORCB-1 produces similar or less amount of CO. In every sample, either acid or salt form, the hydroxyl radical extracts the amount of CO to a much higher magnitude within a very short amount of time.” for “indicated.”

[4] = physchem; conditions: for auto-decomposition of salts (in words): salts in D2O; for CO release rate relative to CORCB-1: acid forms
Description: The kinetics of compound decomposition was followed by observing the ratio of the amount of free amine group to the original compound using ^1H NMR. For instance, Hexamethylenetetramine carboxyborane (CORCB-1) in D2O at the concentration of 12 mg/mL was incubated at 37° C. in the standard NMR tube. ^1H NMR spectra were obtained at different time points to study the kinetics of product formation. […] The ratio of integrated peaks were used for determining the percent of each species present and plotted as a function of time to show the kinetics of auto-decomposition.
^1H, ^11B, and ^13C NMR spectra were recorded at different time points to study the kinetics as well as to observe transformation of CORCB-1 into the products.
In order to determine whether CO is produced in physiological condition, CORCB acid forms were dissolved in aqueous solution at neutral pH. The solution was then subjected to incubation at 37° C. for extended period of time. For studies using NMR, CORCBs were dissolved in D2O. The kinetics of CORCB molecules breaking down to produce CO is determined by taking ^1H NMR spectra at various time points (FIG. 3).
CORCB sodium and ammonium salts were also tested for decomposition by using ^1H NMR spectroscopy. Samples were set up as in Example 1 and rate of decomposition measured (FIG. 4).

[5] = tested on: normal fibroblast cells (Hs 895.Sk); experiment: Cell viability in DMEM without FBS, Cell Titer Blue, normal cells; conditions: 2 mM, 48 hours
Description: (§3) Cells were seeded at the density of 3×10^3 cells per well in 96-well plate with different concentrations of CORCBs in DMEM media without FBS, and incubated at 37° C. with 5% CO2 for 2 days.

[6] = Decomposition (amine release) in the presence of H2O2 monitored by 1H NMR; format: physicochemical; conditions: for Decomposition rate at 24 hours, 1H NMR, With 1.5x H2O2: 1.5 equivalents H2O2, 37° C.
Description: as §2
The reaction with H2O2 is slow-acting, therefore, NMR spectroscopy can be used for monitoring the rate.

[7] = tested on: RAW264.7 cells; experiment: Cytotoxicity / cell viability, Cell Titer Blue assay
Description: To test the anti-inflammatory effect of CORCBs, mouse macrophage cells (RAW264.7) were used. 2×10^4 cells per well was seeded in 96-well plate with different concentrations of CORCBs. Cells were incubated in DMEM with 10% FBS at 37° C. and 5% CO2 for 24 hours. LPS (100 ng/mL) was then added and incubated for 4 additional hours. The media containing secreted inflammatory cytokines were collected and these cells were subjected to cell viability test to check their viability.
Cytotoxicity of CORCBs was tested with RAW264.7 cells using Cell Titer Blue assay. In brief, cells were seeded at the density of 2×10^4 cells per well in 96-well plate with different concentrations of CORCBs. Cells were incubated in DMEM with 10% FBS at 37° C. and 5% CO2 for 24 hours. Cell Titer Blue reagent was added into the wells and incubated for 4 more hours in the normal cell growth conditions. The fluorescence signal of the converted reagent resulted from the viable cells was measured.

[8] = tested on: fibroblast tumor cells (Hs 895.T) and normal fibroblast cells (Hs 895.Sk); conditions: human, 48 h, 1 mM
Description: as §3

[9] = Solubility in water / D2O; conditions: water or D2O
[10] = tested on: normal human skin fibroblast cells (Hs 895.Sk)
Description: This was tested by using a chemotherapy drug, imatinib, in normal human skin fibroblast cells (Hs 895.Sk). The cultures were treated with 20 μM and 40 μM concentration of imatinib as controls to see their toxicity. Samples with mixtures of CORCB-1 and imatinib were also incubated and cell viability was determined on 2, 4, and 6 days. Media was exchanged every 2 days with fresh reagents.

[11] = 24 hours, 1.5 equivalents H2O2, 37° C.

O=C([O-])[BH2-][N+]12CN3CN(CN(C3)C1)C2.[Na+] [Na-CORCB-1]
% CO liberated at 24 hours by CO meter [1]: 33% | CO release rate at 24 hours, CO meter, Autodecomposition [1]: 33.10% | Rate of % CO released by CORCB sodium salts, Autodecomposition [1]: 33.12 ± 0.33% | Rate of % CO released by CORCB sodium salts, With H2O2 [2]: 11.99 ± 0.19% | Rate of % CO released by CORCB sodium salts, With Fenton Reagent [3]: 41.61 ± 0.57% | % decomposed at 24 hours by 1H NMR ([4]; 37° C.): 33.1% | Decomposition rate at 24 hours, 1H NMR, Autodecomposition ([4]; 37° C.): 33.20%

C[N+](C)(C)[BH2-]C(=O)O [Na-CORCB-3]
CO release rate at 24 hours, CO meter, Autodecomposition [1]: not measurable | Rate of % CO released by CORCB sodium salts, Autodecomposition [1]: 0.14 ± 0.02% | Rate of % CO released by CORCB sodium salts, With H2O2 ([2]; sodium salts, per 24 hour): 7.41 ± 0.16% | Rate of % CO released by CORCB sodium salts, With Fenton Reagent [3]: 33.46 ± 0.90% | Decomposition rate at 24 hours, 1H NMR, Autodecomposition ([4]; 37° C.): not measurable | auto-decomposition of salts (in words) ([4]; 37° C.): insignificant amounts of decomposition

O=C([O-])[BH2-][NH2+]C12CC3CC(CC(C3)C1)C2.[Na+] [Na-CORCB-6, Amantadine carboxyborane sodium salt]
CO release rate at 24 hours, CO meter, Autodecomposition [1]: 0.16% | CO release rate at 24 hours, CO meter, With 1.5x H2O2 [2, 11]: 0.80% | viability of normal fibroblast cells (in words) [5]: increasing the percent viability of normal fibroblast cells | Decomposition rate at 24 hours, 1H NMR, Autodecomposition ([4]; 37° C.): not measurable | Decomposition rate at 24 hours, 1H NMR, With 1.5x H2O2 [6]: 36.90%

N.O=C(O)[BH2-][n+]1ccccc1 [NH4-CORCB-2]
CO release rate at 24 hours, CO meter, Autodecomposition [1]: not measurable | Decomposition rate at 24 hours, 1H NMR, Autodecomposition ([4]; 37° C.): 0.03%

OO [H2O2, hydrogen peroxide, reference compound]
viability ([7]; 1 mM, after 24 hours, untreated cells = 100%): 44%

O=C([O-])[BH2-][n+]1ccccc1.[Na+] [Na-CORCB-2]
CO release rate at 24 hours, CO meter, Autodecomposition [1]: 0.36% | Rate of % CO released by CORCB sodium salts, Autodecomposition [1]: 0.36 ± 0.13% | Rate of % CO released by CORCB sodium salts, With H2O2 ([2]; sodium salts, per 24 hour): 12.66 ± 0.21% | Rate of % CO released by CORCB sodium salts, With Fenton Reagent [3]: 43.46 ± 0.73% | Decomposition rate at 24 hours, 1H NMR, Autodecomposition ([4]; 37° C.): 0.46%

NC12CC3CC(CC(C3)C1)C2 [Amantadine, reference compound]
cells left (viability) [8]: about 20%

CC(=O)Nc1ccc(OC(=O)B[N+]23CN4CN(CN(C4)C2)C3)cc1 [CORCB-1-TY, hexamethylenetetramine carboacetaminophenborane]
% CO liberated at 24 hours by CO meter [1]: 12.3% | CO release rate at 24 hours, CO meter, Autodecomposition [1]: 12.30% | % decomposed at 24 hours by 1H NMR ([4]; 37° C.): 11.3% | Decomposition rate at 24 hours, 1H NMR, Autodecomposition ([4]; 37° C.): 11.30% | time to decompose to completion ([4]; D2O, 37° C.): 12 days

C[C@]12CC3CC([NH2+][BH2-]C(=O)O)(C1)C[C@@](C)(C3)C2 [CORCB-4, memantine carboxyborane]
CO release rate at 24 hours, CO meter, Autodecomposition [1]: not soluble | solubility in water [9]: low solubility in water | Decomposition rate at 24 hours, 1H NMR, Autodecomposition ([4]; 37° C.): not soluble

CC12CC3CC(C)(C1)CC([NH2+][BH2-]C(=O)[O-])(C3)C2.[Na+] [Na-CORCB-4, Memantinecarboxyborane sodium salt]
CO release rate at 24 hours, CO meter, Autodecomposition [1]: 0.06% | % CO produced by CO meter with H2O2 ([2]; 1.5 equivalents H2O2, 24 hours): 1.6% | CO release rate at 24 hours, CO meter, With 1.5x H2O2 [2, 11]: 1.60% | solubility in water [9]: soluble in water | Decomposition rate at 24 hours, 1H NMR, Autodecomposition ([4]; 37° C.): not measurable | auto-decomposition of salts (in words) ([4]; 37° C., listed as Sodium salt of CORCB-4, sodium salt): insignificant amounts of decomposition | auto-decomposition of salts (in words) ([4]; 37° C., listed as sodium salt of CORCB-4, sodium salt): does not decompose in measurable amount | % decomposition / free amine released by 1H NMR with H2O2 ([6]; 1.5 equivalents H2O2, 24 hours, sodium salt): 96.4% and ~100% | Decomposition rate at 24 hours, 1H NMR, With 1.5x H2O2 [6]: 96.40%

Cc1ccc(NC(=O)c2ccc(CN3CCN(C)CC3)cc2)cc1Nc1nccc(-c2cccnc2)n1 [imatinib]
cell viability with 20 μM imatinib (in words) ([10]; 20 μM, by 6 days): killed | cell viability with 40 μM imatinib (in words) ([10]; 40 μM, at 4 days): lose their viability

O=C(O)B[n+]1ccccc1
CO release rate at 24 hours, CO meter, Autodecomposition [1]: 3% | Rate of % CO released by CORCBs, Autodecomposition [1]: 2.99 ± 0.06% | CO released with 3 equivalents H2O2 [2]: about 10% | CO release rate at 24 hours, CO meter, With 1.5x H2O2 [2, 11]: 1.00% | Rate of % CO released by CORCBs, With H2O2 ([2]; per 24 hour): 20.22 ± 0.35% | Rate of % CO released by CORCBs, With Fenton Reagent [3]: 72.64 ± 2.57% | Decomposition rate at 24 hours, 1H NMR, Autodecomposition ([4]; 37° C.): 0.40% | CO release rate relative to CORCB-1 ([4]; D2O, 37° C.): much slower CO release rates than CORCB-1 | Decomposition rate at 24 hours, 1H NMR, With 1.5x H2O2 [6]: 37.50%

C[N+](C)(C)[BH2-]C(=O)O [CORCB-3, trimethylamine carboxyborane]
CO release (in words), CO meter [1]: negligible | Rate of % CO released by CORCBs, Autodecomposition [1]: 0.13 ± 0.01% | CO released with 3 equivalents H2O2 [2]: about 10% | CO release rate at 24 hours, CO meter, With 1.5x H2O2 [2, 11]: 2.70% | Rate of % CO released by CORCBs, With H2O2 ([2]; per 24 hour): 18.73 ± 0.24% | Rate of % CO released by CORCBs, With Fenton Reagent [3]: 76.64 ± 1.33% | cytotoxicity / cell growth (in words) ([7]; 0.5-10 mM (up to 10 mM), 24 hours): not toxic at the levels tested | cell viability after the TNF-α assay (in words) ([7]; same cells as TNF-α assay): all cells remain viable | CO release rate relative to CORCB-1 ([4]; D2O, 37° C.): much slower CO release rates than CORCB-1 | rate of auto-decomposition ([4]; as stated in Example 10): ~3 % per day | Decomposition rate at 24 hours, 1H NMR, With 1.5x H2O2 [6]: 44.50%

C1N2CN3CN1CN(C2)C3 [HMTA, hexamethylenetetramine, reference compound]
cytotoxicity at 2 mM (in words) ([7]; 2 mM, 24 hours): most cells losing viability

N.O=C(O)[BH2-][N+]12CN3CN(CN(C3)C1)C2 [NH4-CORCB-1]
CO release rate at 24 hours, CO meter, Autodecomposition [1]: 28.70% | Decomposition rate at 24 hours, 1H NMR, Autodecomposition ([4]; 37° C.): 26.40%

CN1CCC[C@H]1c1ccc[n+](BC(=O)O)c1
% CO liberated at 24 hours by CO meter [1]: 0.86% | CO release (in words), CO meter [1]: much slower rate than the others | CO release rate at 24 hours, CO meter, Autodecomposition [1]: 0.86% | CO release rate at 24 hours, CO meter, With 1.5x H2O2 [2]: 0.50% | % decomposed at 24 hours by 1H NMR ([4]; 37° C.): 1.0% | Decomposition rate at 24 hours, 1H NMR, Autodecomposition ([4]; 37° C.): 1% | CO release rate relative to CORCB-1 ([4]; D2O, 37° C.): much slower CO release rates than CORCB-1 | Decomposition rate at 24 hours, 1H NMR, With 1.5x H2O2 [6]: 35.90%

CC12CC3CC(C)(C1)CC([NH2+][BH2-]C(=O)O)(C3)C2.N [NH4-CORCB-4]
CO release rate at 24 hours, CO meter, Autodecomposition [1]: not soluble | solubility in water [9]: soluble in water | Decomposition rate at 24 hours, 1H NMR, Autodecomposition ([4]; 37° C.): 12.80% | decomposition in 12 days ([4]; ammonium salt, 12 days, 37° C.): about 13%
